How the values were obtained:
[1] = molecular target: recombinant human His6-tagged PTP4A3 (Homo sapiens (Human), UniProt O75365); assay: In vitro biochemical analysis of PTP4A inhibition, DiFMUP substrate; conditions: for preference among the PTP4A family members: PTP4A3 versus PTP4A1 and PTP4A2, from IC50 values
[2] = molecular target: recombinant human His6-tagged PTP4A2 (Homo sapiens (Human), UniProt Q12974); assay: as above; conditions: DiFMUP 12 μM, 25 minutes, 25° C.; mean ± S.E.M.
Sequence of recombinant human His6-tagged PTP4A2 (Q12974 whole entry): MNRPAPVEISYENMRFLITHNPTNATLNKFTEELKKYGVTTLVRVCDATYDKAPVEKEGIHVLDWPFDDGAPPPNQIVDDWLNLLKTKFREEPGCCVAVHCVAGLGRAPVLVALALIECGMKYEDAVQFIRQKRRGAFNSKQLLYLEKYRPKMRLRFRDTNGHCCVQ

Sequence of recombinant human His6-tagged PTP4A3 (O75365 whole entry): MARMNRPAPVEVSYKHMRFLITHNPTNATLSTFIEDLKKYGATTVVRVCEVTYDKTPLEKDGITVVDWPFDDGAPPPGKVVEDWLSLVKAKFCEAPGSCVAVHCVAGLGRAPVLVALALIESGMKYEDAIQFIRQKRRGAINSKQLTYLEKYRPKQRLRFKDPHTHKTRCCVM

Row | SMILES | preference among the PTP4A family members [1] | IC50 [2] [nM] | IC50 PTP4A3 ([1]; DiFMUP 12 μM, 25 minutes, 25° C., mean ± S.E.M.)
1 | N=C1C(=O)NC(=O)c2cc(-c3ccccc3Cl)sc21 [Compound 9k, 2-(2-Chlorophenyl)-7-iminothieno[3,2-c]pyridine-4,6(5H,7H)-dione] | even more pronounced preference for PTP4A3 compared with PTP4A2 | 113 | –
2 | N=C1C(=O)NC(=O)c2cc(-c3ccc(OCCN4CCOCC4)cc3)sc21 [Compound 9o, 7-Imino-2-(4-(2-morpholinoethoxy)phenyl)thieno[3,2-c]pyridine-4,6(5H,7H)-dione] | little preference | – | –
3 | CN1C(=O)C(=N)c2sc(-c3ccccc3)cc2C1=O [Compound 9p, 7-Imino-5-methyl-2-phenylthieno[3,2-c]pyridine-4,6(5H,7H)-dione] | even more pronounced preference for PTP4A3 compared with PTP4A2 | 264 | –
4 | O=c1[nH]c(=O)c2cc(-c3ccccc3)sc2[nH]1 [JMS-038, 6-phenylthieno[2,3-d]pyrimidine-2,4(1H,3H)-dione, reference compound] | – | – | failed to inhibit PTP4A3

Source: patent US12227515B2, “In-flow photooxygenation of aminothienopyridinones generates novel PTP4A3 phosphatase inhibitors” (University of Virginia Patent Foundation, priority 2018, dated 2025)
